The assay deals with CD11b+HLA-DRloCD15+CD14− myeloid cells. In words: Hyperplex IF of paired pre- and on-treatment mCRPC biopsies: intratumour immune cell density. It counts as in vivo, human. Here is the method: Specific pharmacokinetic collection time points are listed in the study protocol. Pharmacokinetic parameters were calculated using non-compartmental analysis (Phoenix v.8.1, Certara). Fresh tumour needle core biopsies from matched disease sites (lymph node, bone and soft tissue) were collected at baseline (within 1 week of treatment commencement) and approximately 2 weeks after starting AZD5069 in patients when this was deemed safe and feasible. Tumour biopsies were obtained from 18 patients under computerized tomography or ultrasound guidance by an experienced interventional radiologist (N.T.). […] One patient had only a baseline tumour biopsy. Two patients underwent on-treatment biopsies after 4 weeks. Immediately after biopsy, tumour samples were immersed in 10% neutral-buffered formalin for 24 hours. Samples were processed through paraffin wax for histologic examination. […] Baseline FFPE samples were analysed by IHC, and pre- and post-treatment FFPE biopsies were analysed by IF and targeted RNA profiling using HTG EdgeSeq. […]
The hyperplex IF protocol template was generated using the COMET Control Software (v.0.70.0.1, Lunaphore Technologies), and reagents were loaded onto the device to carry out the sequential IF (seqIF) protocol. […] Nuclear signal was detected with DAPI (No. 62248, dilution 1:1,000, Thermo Fisher Scientific) by dynamic incubation of 2 min. […]

Regarding `C[C@@H](Oc1cc(NS(=O)(=O)N2CCC2)nc(SCc2cccc(F)c2F)n1)[C@@H](O)CO` [AZD5069], the “density of other immune cells in CRPC biopsies” value is listed as “did not significantly alter the density of other immune cells”. The “density of CD11b+HLA-DRloCD15+CD14− myeloid cells in CRPC biopsies” value (most patients treated with AZD5069 >40 mg BD, approximately 2 weeks after starting treatment) is given as “reduced the density”.
